{"source": "patent US20020148006A1", "about": "“Transgenic plants with modified sterol compositions” (Asgrow Seed Company, L.L.C., priority 1996, published 2002)", "key": {"[1]": {"tested_on": "serum and/or plasma total cholesterol and low density lipoprotein (LDL) cholesterol", "conditions": "comparison of phytosterol structures; cited from earlier work"}, "Arabidopsis SMT": {"molecular_target": "T1, Arabidopsis SMT (Arabidopsis thaliana, UniProt Q39227)", "T1 construct": "The full-length ORF containing a Nde 1 site at the start; His-tag; made in house; host or cells: E. coli, pET23a(+)", "T1 sequence (Q39227 1-361)": "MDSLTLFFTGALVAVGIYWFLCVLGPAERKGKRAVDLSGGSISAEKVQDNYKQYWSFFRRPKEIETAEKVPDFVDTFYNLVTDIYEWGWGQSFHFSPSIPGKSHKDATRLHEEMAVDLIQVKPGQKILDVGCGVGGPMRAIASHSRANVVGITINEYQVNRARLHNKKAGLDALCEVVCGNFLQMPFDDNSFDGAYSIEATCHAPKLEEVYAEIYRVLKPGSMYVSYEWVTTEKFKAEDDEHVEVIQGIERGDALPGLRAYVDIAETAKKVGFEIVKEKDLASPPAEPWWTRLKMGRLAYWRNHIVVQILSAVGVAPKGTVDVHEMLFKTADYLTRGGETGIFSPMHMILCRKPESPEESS", "test": "Sterol transformation by recombinant Arabidopsis SMT expressed in E. coli", "assay_type": "biochemical", "conditions": "recombinant fusion protein", "excerpt": "The SMT gene from Arabidopsis was cloned and sequenced (FIG. 6; SEQ ID NO:3). This gene containing a His-tag was overexpressed in E. coli (Tong et al., 1997). Arabidopsis SMT was partially purified and characterized in stereochemical detail.\nThe Arabidopsis SMT gene was amplified by PCR from a cDNA library. The primers used were designed from the full-length cDNA sequence retrieved from the GeneBank (Accession number X89867). The amplified product was the full-length Arabidopsis SMT gene which was sub-cloned into a T/A cloning vector and sequenced. From the sequence data the ORF was identified. A Nde I site was created at the ATG start codon through PCR mediated site-directed mutagenesis. The full-length ORF containing a Nde 1 site at the start and a BamH I site at the stop was cloned into the pET23a(+) vector just as the ERG6 gene was in Example 4. […] In the case of cycloartenol only one product was formed, which is 24(28)-methylene cycloartanol, i.e., SMTI in FIG. 4. Since a single gene product was able to metabolize both sterol substrates it further confirms the enzymological data in Example 3."}, "[2]": {"tested_on": "(S)-adenosyl-L-methionine: Δ^24-sterol methyl transferase (SMT)", "test": "Sterol specificity (substrate methylation) of SMT enzyme from 4-day corn seedlings", "assay_type": "biochemical, Zea mays (corn)", "conditions": "for Enzyme Activity: soluble SMT from corn seedlings, BG = background; for % Activity, relative to cycloartenol methylation: soluble SMT", "method": "The sterol specificity of the microsome-bound and soluble SMT enzyme from 4-day corn seedlings was determined in order to elucidate the enzymatic basis for the plant sterols identified in Example 1."}, "SMT": {"tested_on": "SMT", "test": "Substrate preference of SMT in microsome preparations of P. wickerhamii", "assay_type": "biochemical, Prototheca wickerhamii", "excerpt": "However, the preferred product is not 24(28)-methylene cycloartenol but cyclolaudenol (VII) which is a Δ^25(27)-24-alkyl sterol, a nonutilizable sterol."}, "Heliothis zea": {"tested_on": "Heliothis zea", "test": "Sterol utilization and metabolism by Heliothis zea reared on artificial diet with sterol supplement", "conditions": "for Utilization by H. zea / support of larval growth and development (words): test sterol as sole added dietary sterol", "method": "Heliothis zea (corn earworm) was reared on an artificial diet treated with different sterol supplements to study the relation between sterol structure and utilization in insects. H. zea eggs were used to establish a disease-free stock colony.\nThe stock insects were reared using sterile procedures on a pinto bean-based diet. Moths were fed 10% sucrose. Cultures were maintained at 27±1° C., at 40±10% relative humidity on a 14:10 light-dark photoperiod and an artificial diet was used to rear the insects on different sterol supplements. The experimental diet contained agar, which is known to contain trace contamination of cholesterol, otherwise the experimental diet was sterol-free.\nSterols were solubilized in acetone. Aliquots of the solutions were added to the sterol-free diet in a mortar, the material mixed thoroughly with the diet, and the organic solvent allowed to evaporate. Sterols were supplied to the medium at 200 ppm (equivalent to 1 mg of sterol per experimental vessel containing one insect).\nBy day 20, H. zea larva are in the final stage of larval development (sixth instar), after which the insects may pupate. A single neonate larva was placed in an experimental culture vial and allowed to grow for 20 days. The fresh weight, length and instar stage of 20-day larva were recorded.\nIn some treatments, the larvae were allowed to grow for another 4 days to determine whether they could pupate properly and develop into moth forms.\nThese fatty alcohols may comigrate with sterols during some forms of chromatography and interfere with sterol quantitation, particularly of cholesterol. Therefore, in order to confirm the identity and amount of cholesterol in the insect an aliquot of the NSF was injected into a HPLC column and the fraction corresponding to cholesterol was examined by GC-MS."}}}
{"smiles": "CC[C@H](CC[C@@H](C)[C@H]1CC[C@H]2[C@@H]3CC[C@H]4C[C@@H](O)CC[C@]4(C)[C@H]3CC[C@]12C)C(C)C", "note": "[sitostanol]", "values": [{"measurement": "Reduction of cholesterol levels", "setting": "[1]", "result": "more efficient compared to unsaturated compounds such as sitosterol in reducing cholesterol levels"}]}
{"smiles": "C=C(CC[C@@H](C)[C@H]1CC[C@H]2C3=CCC4C(C)C(O)CC[C@]4(C)[C@H]3CC[C@]12C)C(C)C", "note": "(stereo partly drawn) [24(28)-Methylenelophenol]", "values": [{"measurement": "Transformation by recombinant Arabidopsis SMT", "setting": "Arabidopsis SMT", "result": "active in transforming both cycloartenol and 24(28)-methylene lophenol to their respective alkyl products"}, {"measurement": "Vmax", "setting": "[2]; second transmethylation", "result": 1, "unit": "pmol/min/mg protein"}, {"measurement": "Enzyme Activity", "setting": "[2]; substrates marked (C2), second methyl transfer", "result": "3,800 dpm/min"}, {"measurement": "% Activity, relative to cycloartenol methylation", "setting": "[2]; (C2), second methyl transfer", "result": "10 (C2) %"}, {"measurement": "Substrate quality for corn SMT", "setting": "[2]; soluble enzyme", "result": "preferred sterol substrate for the second methylation reaction"}, {"measurement": "Km", "setting": "[2]; sterol substrate of the second transmethylation, read-out: Km", "result": 11, "unit": "µM"}]}
{"smiles": "CC(C)=CCC[C@@H](C)[C@H]1CC[C@@]2(C)[C@@H]3CC[C@H]4C(C)(C)[C@@H](O)CC[C@@]45C[C@@]35CC[C@]12C", "note": "[Cycloartenol, cycloartenol]", "values": [{"measurement": "Substrate preference of P. wickerhamii SMT", "setting": "SMT", "result": "preferred substrate"}, {"measurement": "Transformation by recombinant Arabidopsis SMT", "setting": "Arabidopsis SMT", "result": "active in transforming both cycloartenol and 24(28)-methylene lophenol to their respective alkyl products"}, {"measurement": "Instar reached by day 20", "setting": "Heliothis zea; Table 11, sterol 200 ppm in diet", "result": 3}, {"measurement": "Growth response", "setting": "Heliothis zea; Table 11, sterol 200 ppm in diet, 20-day larvae, relative to growth on cholesterol normalized to 100%", "result": 5, "unit": "%"}, {"measurement": "Utilization by H. zea / support of larval growth and development (words)", "setting": "Heliothis zea", "result": "inhibit insect growth"}, {"measurement": "Utilization by H. zea / support of larval growth and development (words)", "setting": "Heliothis zea; listed as cycloartenol", "result": "could not be met satisfactorily"}, {"measurement": "Vmax", "setting": "[2]; first transmethylation", "result": 4, "unit": "pmol/min/mg protein"}, {"measurement": "Substrate quality for corn SMT", "setting": "[2]; microsome-bound enzyme system", "result": "preferred sterol acceptor"}, {"measurement": "Enzyme Activity", "setting": "[2]; substrates marked (C1), first methyl transfer", "result": "37,515 dpm/min"}, {"measurement": "% Activity, relative to cycloartenol methylation", "setting": "[2]; (C1), first methyl transfer", "result": "100 (C1) %"}, {"measurement": "Substrate quality for corn SMT", "setting": "[2]; soluble enzyme", "result": "preferred substrate for the first methylation reaction"}]}
